“And” between values parts separate entries of the source, which are not always exact repeats. Equal entries are not always repeated.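 48-hour exposure; five concentrations; linearly interpolated endpoints. GI50 = concentration required for 50% inhibition of growth. Definition used: TGI = concentration required for complete inhibition of growth.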
What was measured:
Test in all cases: DTP human tumour cell line panel, 48 h
[1] = test system: ACHN renal
[2] = test system: PC-3 prostate
[3] = test system: LOX IMVI melanoma
[4] = test system: SF-295 CNS
[5] = test system: DMS 273 small cell lung
[6] = test system: UACC-257 melanoma
[7] = test system: KM12 colon
[8] = test system: OVCAR-4 ovarian
[9] = test system: SNB-78 CNS
[10] = test system: A549 NSCLC
[11] = test system: SNB-19 CNS

| SMILES | TGI [1] | TGI [2] | TGI [3] | TGI [4] | TGI [5] | TGI [6] | TGI [7] | TGI [8] | TGI [9] | TGI [10] | TGI [11] | GI50 [3] | GI50 [4] |
| --- | --- | --- | --- | --- | --- | --- | --- | --- | --- | --- | --- | --- | --- |
| COc1cc2c(cc1OC)[C@H]1CN3CCC[C@H]3C=C1c1ccc(OC)c(O)c1-2 | 0.0154 µM | 0.0269 µM | 0.000604 µM | 0.00039 µM | 0.000139 µM | 0.00835 µM | 0.00183 µM | 0.00362 µM | 0.00049 µM |  |  |  |  |
| O=C1Sc2ccccc2C(=O)N2CSCC12 (centres undefined) | > 100 µM |  | > 100 µM | > 100 µM | > 100 µM | > 100 µM | > 100 µM |  | > 100 µM | > 100 µM | > 100 µM |  |  |
| CSC(=Nc1ccccc1)N(c1ccccc1)c1nc(=[N+](C)C)ss1 | 16.9 µM |  | 12.7 µM | 25.1 µM | 2.2 µM | 4.96 µM | 13.7 µM | 21.5 µM | 21.4 µM | 33.7 µM | 15.4 µM |  |  |
| CC(O)CCCOC(c1ccccc1)(c1ccccc1)c1ccccc1 (centres undefined) | 27.8 µM | 23.7 µM | 30.4 µM | 27.4 µM |  | 30.4 µM | 27.8 µM | 28.1 µM | 29.3 µM | 27.3 µM | 29.6 µM |  |  |
| CC12CCC3C(CCC4CC(OC(=O)Cc5ccc(N(CCCl)CCCl)cc5)CCC43C)C1CCC(=O)N2 (centres undefined) | 23.2 µM |  |  | 30.3 µM | 25.6 µM |  | 32.1 µM | 29.3 µM | 40.7 µM | 29 µM | 32.5 µM |  |  |
| O=c1[nH]cnc(NC2C=C(CO)C(O)C2O)c1[N+](=O)[O-] (centres undefined) | > 100 µM |  | > 59.6 µM | > 100 µM | > 66.1 µM | > 100 µM | > 100 µM | > 100 µM | > 100 µM | > 100 µM | > 100 µM |  |  |
| CCN(CC)CCCNC(=O)c1ccc([N+](=O)[O-])cc1O | > 100 µM |  | > 100 µM | > 100 µM | > 100 µM | > 100 µM | > 100 µM | > 100 µM | > 100 µM | > 100 µM | > 100 µM |  |  |
| O=C1NCCS(=O)(=O)N[C@@H](CC2=CC=CCC2)C(=O)N2CCCC12 (some centres undefined) | > 100 µM |  | > 100 µM | > 100 µM | > 100 µM | > 100 µM | > 100 µM | > 100 µM | > 100 µM | > 100 µM | > 100 µM |  |  |
| COc1c(O)c2c3c(c(C)cc(O)c3c1O)C(=O)C(O)(C(C)(C)C(C)=O)C2=O (centres undefined) | > 100 µM |  | > 100 µM | 71.2 µM and > 100 µM | > 100 µM | > 100 µM | > 100 µM | > 100 µM | > 100 µM | > 100 µM | > 100 µM | 33 µM and 67.6 µM | 25.2 µM and > 100 µM |
| Nc1nc(N)c(N=O)c(Nc2ccc(Br)cc2)n1 | 49.3 µM |  | 66.5 µM | > 100 µM | 79.5 µM | 77 µM | > 100 µM | > 100 µM | > 100 µM | > 100 µM | > 100 µM |  |  |
| ClC(Cl)=C1C(=C(Cl)Cl)C(Cl)(Cl)C1(Cl)Cl | 8.81 µM | 5.08 µM | 0.579 µM and 1.86 µM | 7.24 µM | 9.87 µM | 12.9 µM | 18.4 µM | 16 µM | 7.71 µM | 25.7 µM | 29 µM |  |  |
| CC(C(=O)N1C(=O)N(C(=O)C(C)C(O)c2ccccc2)C2CCCCC21)C(O)c1ccccc1 (centres undefined) | > 100 µM |  | > 100 µM | > 100 µM | > 100 µM |  | > 100 µM | > 100 µM | > 100 µM | > 100 µM | > 100 µM |  |  |
| CC1=NN(C(=O)CC(=O)Nc2ccccc2F)C(=O)C1N=Nc1ccccc1[N+](=O)[O-] (centres undefined) |  |  |  | > 100 µM | > 100 µM | > 100 µM | > 100 µM | > 100 µM | > 100 µM | > 100 µM | > 100 µM |  |  |
| O=C(CN(c1ccccc1)c1ccccc1)N1c2ccccc2C2C=CC=CC21 (centres undefined) | > 59.1 µM |  | 44.5 µM | 58.8 µM | > 60.3 µM | 50.1 µM | 96.8 µM | > 100 µM | > 58.7 µM | > 54.9 µM | 38.1 µM |  |  |
| CCC1=CC2CN3Cn4c(c(COCc5c6n(c7ccccc57)CN5CC7C=C(CC)C5C6(C(=O)OC)C7)c5ccccc54)C(C(=O)OC)(C2)C13 | > 100 µM |  | > 100 µM | > 100 µM | > 100 µM | > 100 µM | > 100 µM | > 100 µM |  | > 100 µM | > 100 µM |  |  |
| CC(=O)OCC1OC(n2cc(I)c(=O)[nH]c2=O)C(OC(C)=O)C(OC(C)=O)C1OC(C)=O (centres undefined) | > 100 µM |  | > 100 µM | > 100 µM | > 100 µM | > 100 µM | > 100 µM | > 100 µM |  | > 100 µM | > 100 µM |  |  |

Source: PubChem BioAssay (NCI)
